“Also recorded” adds a separate entry of the source.

The values below come from patent US20130210143A1, “NOVEL METHODS FOR PREVENTING OR TREATING DIABETES” (FUNDACION PUBLICA ANDALUZA PROGRESO Y SALUD, priority 2010, published 2013).

One data set deals with Type 2 diabetic islets. Kind of data set: Glucose-stimulated insulin secretion, islets from Type 2 diabetic donors. The data set is classed as cell-based, human. As to the method:
(§1) Twenty human islets/sample were preincubated with KRBH buffer (135 mM NaCl, 3.6 mM KCl, 2 mM NaHCO3, 0.5 mM NaH2PO4, 0.5 mM MgSO4, 1.5 mM CaCl2, 10 mM HEPES, pH 7.4, and 0.1% bovine serum albumin) containing 2.5 mM glucose for 30 min. Cells were then incubated for 30 min in KRBH buffer containing 2.5 mM or 16.5 mM glucose. In some instances islets were also cultured in the presence of increasing concentrations of a LRH-1 agonist of Formula II or glibenclamide. Insulin content, obtained by 10% acetic acid/ethanol (v/v) treatment on islets, and secreted insulin were quantified using the rat insulin enzyme immunoassay kit (Spi-Bio, Montigny le Bretonneux, France).

Data set [1] concerns human islets. Description: MTT toxicity test (cell viability) in isolated human islets. Format: cell-based. Particulars: for Islet viability (MTT): islets of the first Type 2 diabetic donor, 48 h, Formula II at 50 uM. As to the method:
The MTT (C,N-diphenyl-N′-4,5-dimethyl thiazol-2-yl tetrazolium bromide) colorimetric assay (reduction of tetrazolium salt to formazan) was used to measure cell viability. The assay provides an indirect estimation of mitochondrial oxidative processes of living cells (Janjic, 1992). Briefly, 40 isolated human islets were incubated for 24 or 48 hours with DMSO or a combination of DMSO and the LRH-1 agonist of Formula II. Islets were washed and pre-incubated with KRBH at 37° C. for 40 minutes. Islets were then incubated at 37° C. for 90 minutes with KRBH containing yellow MTT (0.5 mg/ml). Cells were wash and incubated for 20 minutes at room temperature in DMSO to solubilize formazan crystals. Colorimetric measurements were performed at 570 nm with reference wavelength 650 nm automatically subtracted.
(Tetrazolium assays rely on reduction of a dye to a coloured formazan, in cell work by metabolically active cells.)

The subject of the next data set is control islets. Description: Glucose-stimulated insulin secretion, control (non-diabetic) human islets. Format: cell-based. How it is done: as §1
In data set [2] the test system is human islets. Kind of data set: Cytokine-induced apoptosis in human islets (Cell Death Detection ELISA). Format: cell-based. As to conditions: 10 uM, cytokines 2 ng/ml IFN-γ, IL-1β and TNF-α, 24 hours post-treatment. As to the method: INS-1E cells or islets (rat or human) were cultured in phenol red free medium containing 10% Charcoal-stripped FCS for 48 h. The latter removes all traces of endogenous steroids, which may skew results. Subsequently, 0.0001% DMSO (vehicle) and/or 10 nM 17β-estradiol were added to the media. Alternatively human islets were also treated with increasing concentrations of either DMSO (vehicule) or with a combination of estrogen and the LRH-1 agonist of Formula II (SevenHills Pharma, Fort Collins, USA) for various time intervals. For apoptosis studies (FIG. 8A), islets were pre-treated with 0.1% DMSO (vehicule) or with 10 μM of the LRH-1 agonist of Formula II. […]
For proliferation, 10 μM BrdU was added to INS-1E cells for 3 h, and to rat or human islets for 24 h. […] Cell apoptosis induced either by cytokines or streptozotocin was measured using the TUNEL assay (In Situ Cell Death Detection Kit, Roche). Alternatively, the Cell Death Detection ELISA^PLUS (Roche) was used to quantify the degree of cytoplasmic histone-associated-DNA-fragments. Results of BrdU and TUNEL assays are expressed as a percentage of BrdU- or TUNEL-positive cells (fluorescein- or TMR-red-labelled nuclei) over the total amount of cells (nuclei staining by DAPI). […]

Another data set relates to SHP. Kind of data set: Quantitative RT-PCR of SHP (LRH-1 downstream target) transcript levels in treated human islets. The data set is classed as cell-based. As to conditions: for Further stimulation of SHP expression: human islets, increased concentration of Formula II or addition of 17β-estradiol. How it is done:
(§2) INS-1E cells or islets (rat or human) were cultured in phenol red free medium containing 10% Charcoal-stripped FCS for 48 h. The latter removes all traces of endogenous steroids, which may skew results. Subsequently, 0.0001% DMSO (vehicle) and/or 10 nM 17β-estradiol were added to the media. Alternatively human islets were also treated with increasing concentrations of either DMSO (vehicule) or with a combination of estrogen and the LRH-1 agonist of Formula II (SevenHills Pharma, Fort Collins, USA) for various time intervals. For apoptosis studies (FIG. 8A), islets were pre-treated with 0.1% DMSO (vehicule) or with 10 μM of the LRH-1 agonist of Formula II. Twenty-four hours later, DMSO or the LRH-1 agonist of Formula II were added again to the medium and incubated for 1 extra hour prior to the addition of either a cocktail of human cytokines (2 ng/ml IFN-γ, IL-1β and TNF-α). Samples of 50 islets were then collected at 24 and 72 hours. The media was replenished with DMSO and the LRH-1 agonist of Formula II at 24 and 48 hours.
(§3) Total RNA was extracted using the RNeasy Micro Kit (Qiagen) and 1-2 μg was converted into cDNA with the Superscript II Reverse transcriptase (Invitrogen). Primers were designed using the Primer Express software (Applera Europe, Rotkreuz, Switzerland) and sequences are provided in Table 1. Real time PCR was performed using an ABI 7000 Sequence Detection System (Applera Europe), and PCR products were quantified fluorometrically using the FastStart Universal SYBR Green Master (Roche Diagnostics, Rotkreuz, Switzerland). Three distinct amplifications were performed in duplicate for each transcript, and mean values were normalized to the mean value of the reference mRNA cyclophilin.

For data set [3], the target named is T1, ligand binding domain of human LRH1 (Homo sapiens, UniProt O00482).
T1 construct: made in house
As to conditions: Whitby et al. (2006); cited from earlier work.

A further data set deals with LRH-1. Description: Quantitative RT-PCR of LRH-1 transcript levels in treated human islets. As to conditions: for LRH-1 expression (transcript levels): 10 nM 17β-estradiol (6 hours) or 10 or 50 uM Formula II (any time point). Format: cell-based. As to the method:
as §2, §3

[4] abbreviates: islets from a second Type 2 diabetic donor.

T1 sequence (O00482 300-541): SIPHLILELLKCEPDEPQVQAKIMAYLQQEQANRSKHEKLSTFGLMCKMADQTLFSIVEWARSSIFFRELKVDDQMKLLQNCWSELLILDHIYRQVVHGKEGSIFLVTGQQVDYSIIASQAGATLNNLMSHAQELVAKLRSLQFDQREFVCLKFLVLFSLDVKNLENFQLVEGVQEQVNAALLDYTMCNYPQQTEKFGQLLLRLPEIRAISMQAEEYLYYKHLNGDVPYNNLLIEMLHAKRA

In the case of `COc1ccc(Cl)cc1C(=O)NCCc1ccc(S(=O)(=O)NC(=O)NC2CCCCC2)cc1` [Glibenclamide, reference compound], the “Insulin secretion at high glucose as compared to control islets” value in the data set on Type 2 diabetic islets (islets from a Type 2 diabetic donor, high glucose (16.5 mM)) came to 214%. Besides, in the data set with Type 2 diabetic islets (islets from a Type 2 diabetic donor, low glucose), the “Increase in insulin secretion at low glucose” value stood at 80%. The “Islet viability (MTT)” value with human islets [1] is given as “impaired cell viability”.
As a reminder, the EC50 is the concentration needed to bring the measured effect to its halfway point. Take `CCC/C=C(\CCC)C1=C(c2cccc(OC)c2)C2(Nc3ccccc3)CCCC2C1` (stereo not drawn) [Formula II]: the Glucose-induced insulin secretion result is recorded as “slight increase” with Type 2 diabetic islets (islets from a Type 2 diabetic donor, 50 uM, not significant) and “unchanged” with control islets (16.5 mM glucose). Moreover, in the data set on Type 2 diabetic islets (setting [4]), the “Insulin secretion in response to high glucose concentrations” value is on record as “increased insulin secretion”. For the same compound, the “Insulin secretion in response to low glucose concentrations” value with Type 2 diabetic islets (setting [4]) is “increased insulin secretion”. Moreover, in the data set on control islets (50 uM, low glucose), the “Increase in basal insulin exocytosis” value was found to be 50%. In the data set on human islets [1] (human islets, up to 50 uM, 24 or 48 hours post treatment), the “Viability by MTT (cytotoxicity)” value is listed as “no toxic effects; also recorded: no apparent detrimental effect”. Further, the “Islet viability (MTT)” value with human islets [1] is “slightly reduced”. Moreover, in the data set on human islets [2], the “Cytokine-induced enrichment in apoptotic cells, 24 hours” value is given as “completely abrogated”. Also, in the data set with SHP (human islets treated for 10 hours, transient), the “SHP transcript levels, increase” value is given as 2 fold. For the same compound, in the data set on SHP, the “Further stimulation of SHP expression” value was “did not further stimulate expression of SHP”. In addition, in data set [3], the EC50 is 430 nM. The “LRH-1 expression (transcript levels)” value with LRH-1 was “did not enhance transcript levels”. The “LRH-1 expression on addition to 17β-estradiol” value in the data set with LRH-1 (Formula II combined with 17β-estradiol) was “prevented the induction of LRH-1 expression”.
In the case of `C[C@]12CC[C@@H]3c4ccc(O)cc4CC[C@H]3[C@@H]1CC[C@@H]2O` [17β-estradiol, reference compound], the “Further stimulation of SHP expression” value with SHP is given as “did not further stimulate expression of SHP”. For the same compound, the “LRH-1 expression (transcript levels)” value with LRH-1 is on record as “transiently increased”.
